Data on five molecules can be found in patent publication US4753958A, “Photochemotherapy of epithelial diseases with derivatives of hematoporphyrins” (priority 1986, dated 1988).

One series has as its system skin cancers. The settings on record: cited from earlier work.
The test system of a further series is psoriasis. The settings on record: oral methoxysalen plus long-wave ultraviolet light (PUVA); cited from earlier work.
Series [1] deals with guinea pig skin. Kind of series: Cutaneous phototoxicity after systemic (I.P.) administration and UVA. The series is classed as in vivo, Guinea pigs. The settings on record: 10 mg/kg I.P., graded 24 hours post light. As to the method: (§1) HPD, DHE, hematoporphyrin and protoporphyrin were provided by Dr. Thomas J. Dougherty, Roswell Park Memorial Institute, Buffalo, NY. Hydroxyvinyldeuteroporphyrin was obtained from Porphyrin Products, Salt Lake City, UT.
Guinea pigs were treated systemically (I.P.) with the various porphyrins, each at a dose of 10 mg/kg. Animals were then irradiated with UVA (20 J/cm^2), either at 6 hours or 24 hours post drug administration. Erythema was graded at 24 hours post light treatment.

Series [2] relates to guinea pig skin. Nature of the series: Cutaneous phototoxicity after intradermal administration and UVA (minimum phototoxic dose). The series is classed as in vivo. The settings on record: intradermal 5-500 μg/0.1 ml; UVA 20 J/cm^2 6 hours post injection. How it is done:
as §1
(§2) Drugs were administered intradermally at doses ranging from 5-500 μg/0.1 ml. Sites were then treated with UVA (20 J/cm^2) 6 hours post drug injection.

Series [3] concerns guinea pig skin. Kind of series: Drug/UVA dosimetry with intradermal HPD and DHE. In kind it is in vivo. As to the method:
as §1, §2
Additional studies were done with intradermal HPD and DHE to study the drug/UVA dosimetry.

The next series relates to epidermal DNA synthesis. Nature of the series: Effect of topical DHE plus UVA on epidermal DNA synthesis in vivo. The arrangement: species or system Mini-pigs. How it is done: The topical activity of DHE was evaluated in vivo in a mini-pig model.
Mini-pigs were obtained from Charles River Laboratories, Inc. (Wilmington, MA). Drug preparations were applied to small areas of dorsal skin (ca 1 inch square) according to the selected application schedules. Six hours following the last drug application, tritiated thymidine was injected into the drug treatment sites for autoradiographic assessment of epidermal proliferation as measured by epidermal labeling index. Weinstein & Van Scott, (1965) J. Invest. Derm. 44:413.
DHE was acid precipitated from a Photofrin II solution by adjusting the pH to 3.5. The precipitated DHA was washed extensively with distilled water until the pH of the filtrate reached 6.0. The DHE powder was vacuum dried, reconstituted in distilled water, and the pH adjusted to 7.0. Aqueous DHE was then mixed with isopropanol and Azone. […] This formulation was applied to selected areas of mini-pig skin approximately 6 hours before irradiation with UVA. Epidermal DNA synthesis was assayed as described above. At 0, 24, 48, and 72 hours post-irradiation, the animals were injected at the selected sites with isotopic precursors (tritiated thymidine). The animals were biopsied one hour after isotopic injection.

The next series deals with malignant cells. The settings on record: HPD enriched for DHE, administered systemically; cited from earlier work.

With `COc1c2occc2cc2ccc(=O)oc12` [methoxysalen], the “skin cancers in patients following PUVA” value with skin cancers was “increased pattern of skin cancers”. In addition, the “clinical effectiveness in psoriasis” value with psoriasis is “relatively effective for the majority of patients”.
As for Hydroxyvinyldeuteroporphyrin, in the series with guinea pig skin [1] (UVA 20 J/cm^2 at 6 hours), the erythema response result is reported as “No response”. The minimum phototoxic dose in the series with guinea pig skin [2] is greater than 500 µg.
Regarding `CC1=C(CCC(=O)O)c2cc3[nH]c(cc4nc(cc5[nH]c(cc1n2)c(C)c5C(C)O)C(C)=C4C(C)O)c(C)c3CCC(=O)O` (stereo not shown) [hematoporphyrin], the erythema response result with guinea pig skin [1] (UVA 20 J/cm^2 at 6 hours) is “mild response”.
Same read-out and setting: as for `C=CC1=C(C)c2cc3[nH]c(cc4nc(cc5[nH]c(cc1n2)c(C)c5CCC(=O)O)C(CCC(=O)O)=C4C)c(C)c3C=C` [protoporphyrin], the entry is “No response”.
For the molecule dihematoporphyrin ether [DHE], the erythema response result in the series with guinea pig skin [1] (UVA 20 J/cm^2 at 6 hours) was “significant response”; in the series with guinea pig skin [1] (UVA 20 J/cm^2 at 24 hours, compared with 6 hours for HPD and DHE) it was “greater”. In addition, in the series on guinea pig skin [2], the minimum phototoxic dose is 5 µg. Moreover, the “erythema, UVA at 24 hours vs 6 hours post injection” value with guinea pig skin [3] (intradermal) was “more pronounced erythema”. For the same molecule, the “UVA dose effective in producing erythema” value in the series on guinea pig skin [3] (intradermal DHE 5 μg/cm^2) came to 1 J/cm^2. Moreover, in the series on guinea pig skin [3] (intradermal DHE 5 μg/cm^2, comparable treatments), the “erythema response compared with HPD” value is “slightly greater than with comparable treatments with HPD”. For the same molecule, in the series with guinea pig skin [3] (intradermal, local drug diffusion from injection site), the “area of erythema, UVA at 24 hours vs 6 hours post injection” value is on record as “larger area of erythema”. Further, the “time of maximum effect post light treatment” value with epidermal DNA synthesis (1% DHE topical plus UVA, autoradiographically and clinically) was 72 h. For the same molecule, the “inhibition of DNA synthesis compared to vehicle control plus UVA” value in the series with epidermal DNA synthesis (1% DHE topical, 48% isopropanol, 4% Azone, 48% water, 5-10 applications plus UVA, FIG. 1) is listed as “significant inhibition of DNA synthesis”. Further, the “phototoxicity toward malignant cells” value with malignant cells is “phototoxic properties toward malignant cells”.
